The test deals with T1, human SLO3 (Homo sapiens, UniProt A8MYU2).
T1 construct: expressed in transfected cells
T1 sequence (A8MYU2 1-1149): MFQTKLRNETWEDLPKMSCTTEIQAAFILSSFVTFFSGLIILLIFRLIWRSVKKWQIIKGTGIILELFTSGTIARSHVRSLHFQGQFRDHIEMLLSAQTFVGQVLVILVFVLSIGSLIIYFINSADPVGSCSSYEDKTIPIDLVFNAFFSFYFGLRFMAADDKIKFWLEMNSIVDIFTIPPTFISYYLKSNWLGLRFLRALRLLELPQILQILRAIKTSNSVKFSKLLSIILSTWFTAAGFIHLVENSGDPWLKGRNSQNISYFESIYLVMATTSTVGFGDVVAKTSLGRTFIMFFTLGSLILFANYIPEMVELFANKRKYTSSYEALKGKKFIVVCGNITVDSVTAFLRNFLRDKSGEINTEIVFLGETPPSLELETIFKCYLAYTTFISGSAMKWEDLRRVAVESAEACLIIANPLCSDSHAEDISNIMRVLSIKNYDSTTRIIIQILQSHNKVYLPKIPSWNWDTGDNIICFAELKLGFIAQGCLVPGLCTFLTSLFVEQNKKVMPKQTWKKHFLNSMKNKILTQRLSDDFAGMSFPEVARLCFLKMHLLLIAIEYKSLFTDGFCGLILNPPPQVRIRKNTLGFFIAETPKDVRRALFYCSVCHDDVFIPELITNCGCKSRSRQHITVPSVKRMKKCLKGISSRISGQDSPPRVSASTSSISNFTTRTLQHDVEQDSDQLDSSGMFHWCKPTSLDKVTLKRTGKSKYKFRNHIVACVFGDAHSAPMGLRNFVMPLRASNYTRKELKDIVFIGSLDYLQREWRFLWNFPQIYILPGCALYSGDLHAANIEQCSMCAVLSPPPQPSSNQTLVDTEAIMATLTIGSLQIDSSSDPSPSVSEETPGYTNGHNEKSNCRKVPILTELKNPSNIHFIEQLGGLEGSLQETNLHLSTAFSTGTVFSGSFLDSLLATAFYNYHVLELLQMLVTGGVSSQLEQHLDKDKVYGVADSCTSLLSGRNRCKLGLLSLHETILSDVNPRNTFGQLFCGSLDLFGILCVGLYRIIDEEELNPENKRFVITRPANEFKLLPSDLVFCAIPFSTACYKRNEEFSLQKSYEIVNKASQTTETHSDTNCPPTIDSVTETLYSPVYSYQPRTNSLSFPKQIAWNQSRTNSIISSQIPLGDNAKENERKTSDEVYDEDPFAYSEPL
T1 sequence (Q8N7C0 24-313 partner): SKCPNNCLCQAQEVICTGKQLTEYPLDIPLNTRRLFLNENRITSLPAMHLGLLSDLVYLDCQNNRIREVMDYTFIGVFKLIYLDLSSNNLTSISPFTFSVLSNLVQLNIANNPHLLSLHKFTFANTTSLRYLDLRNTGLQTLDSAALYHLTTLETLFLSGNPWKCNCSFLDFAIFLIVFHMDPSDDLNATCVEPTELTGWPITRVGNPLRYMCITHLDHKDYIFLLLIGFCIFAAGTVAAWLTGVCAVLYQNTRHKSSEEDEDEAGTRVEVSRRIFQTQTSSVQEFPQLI
The test can be described thus: SLO3 patch-clamp electrophysiology, human SLO3-γ2 expressed in HEK293 cells. The class given is cell-based. As to conditions: for inhibition at 10 µM: HEK293, read-out: HEK hSLO3 % of inhib. at 10 μM; for pIC50: transfected HEK293 cells (human SLO3-γ2), whole-cell patch clamp, currents at +100 mV, read-out: hSLO3 IC50. The procedure: HEK293 cells were transfected with the bicistronic vector pBUD-CE4.1 containing the genes of interest and a gene conferring antibiotic resistance. Cells were exposed to gradients of selection antibiotics, and optimal growth conditions for the stable lines were as follows: SLO3 and γ2 (SLO3-γ2) supplemented with 700 μg/mL Zeocin (Invitrogen); human SLO1 and β1 (SLO1-β1) with 1 mg/mL G418 (Sigma) and 3 μg/mL puromycin (Corning, Thermo Fisher); and human SLO1 and β4 (SLO1-β4) with 250 μg/mL Zeocin and 3 μg/mL puromycin. All cell lines were grown in Dulbecco’s Modified Eagle Medium (Gibco, Thermo Fisher) supplemented with 10% fetal bovine serum, 1% penicillin–streptomycin (Millipore Sigma), and selection antibiotics. To generate cells expressing SLO1 and γ2, stable SLO1-expressing HEK293 cells were transiently transfected with expression vectors for γ2 and green fluorescent protein (GFP) in the presence of lipofectamine (Invitrogen) for 5 h.
The cells were then washed and incubated in supplemented Dulbecco’s Modified Eagle Medium for 48 h before use. Patch-clamp electrophysiology was performed only on cells expressing GFP.
Currents in HEK293 cells were measured in the whole-cell patch-clamp configuration with an Axopatch 200B amplifier, digitized with a Digidata 1440A, and interfaced with Clampex 10.6.0.13 (Molecular Devices). […] An isolated cell was located on an Axiovert 200 microscope (Zeiss), and a gigaohm seal was formed with a borosilicate pipette with resistance between 3 and 6 MΩ and filled with internal solution (140 mM KMeSO3, 10 mM HEPES, 10 mM MES, 1 mM EGTA, pH 7). The seal was then broken by applying a negative pressure. Cells were kept at a holding potential of −60 mV for 50 ms, tested with a stepped voltage protocol from −80 to +150 mV in 10 mV increments for 100 ms, and then dropped to −40 mV for 50 ms with 2.5 s between sweeps. This protocol was used to record currents present with increasing concentration of our compound of interest or 3 μL/mL vehicle (DMSO) in the bath solution. Individual cells were tested with between 1 and 5 concentrations of the compound of interest or until the patch was lost. Currents were allowed to stabilize before the initial recording and after the perfusion solution was changed before recording.
Data were analyzed with a pClamp 10.6 (Molecular Devices). VU6047606 and VU6032735 inhibition dose–response relationships were fit by the Hill equation in OriginPro 7.5 (OriginLab Corporation): R=1/1+(C/IC50)^n+Ioff , in which R is fractional unblock, C is compound concentration, IC50 is the half inhibition concentration, n is the Hill coefficient, and I off is an offset item for leak current. Error bars in the figures represent the SDs. Each data point is averaged from at least 5 measurements. Curve-fitting results are reported as the fitted values with standard error, which was estimated by OriginPro according to the Error Propagation formula.
On the technique in general: The patch-clamp technique gives a direct electrical read-out from membranes.

The term pIC50 denotes the negative decadic logarithm of the IC50, by convention in mol/L.

The structures appear in SMILES notation. pIC50: −log10 of the molar value.

In the case of `O=C(c1ccc(OCc2ccc(OC(F)(F)F)cc2)cc1)N1CCN(c2ccc(C(F)(F)F)cn2)CC1` [VU6032735], the inhibition at 10 µM amounted to 100% and the negative-log IC50 (pIC50) is 6.78.

On to `Cc1cc(Cl)cc2sc(OC3CCN(C(=O)CCCS(=O)(=O)c4cccc(Br)c4)CC3F)nc12` (centres unmarked) [VU6045330], for which the pIC50 was 6.87.

As to `Cc1cc(Cl)cc2sc(O[C@H]3CCN(C(=O)CCCS(=O)(=O)c4cccc(Br)c4)C[C@H]3F)nc12` [VU6047606], the inhibition at 10 µM turned out to be 100% and the pIC50 is 7.37.

As for `Cc1cc(Cl)cc2sc(O[C@@H]3CCN(C(=O)CCCS(=O)(=O)c4cccc(Br)c4)C[C@H]3F)nc12` [VU6047607], the pIC50 is 6.34.

In the case of `Cc1cc(Cl)cc2sc(O[C@@H]3CCN(C(=O)CCCS(=O)(=O)c4cccc(Br)c4)C[C@@H]3F)nc12` [VU6047608], the pIC50 is 6.23.

`Cc1cc(Cl)cc2sc(O[C@H]3CCN(C(=O)CCCS(=O)(=O)c4cccc(Br)c4)C[C@@H]3F)nc12` [VU6047609]: the pIC50 is 6.95.

The values above are taken from PMC12441834, “Highly Potent and Subtype-Selective Sperm-Specific Potassium Channel SLO3 Inhibitors Display High Tissue Exposure in the Murine Female Reproductive Tract” (ACS Pharmacology & Translational Science, 2025).
